Assay results as given in PubChem BioAssay AID1963960 (Molecular Pharmacology Branch, DTP, NCI, 2024).
pIC50: −log10 of the molar value.

System: MDA-MB-468 spheroids with HUVEC/MSC, viability
Experiment: Anticancer human tumor MDA-MB-468 cell line growth inhibition [PI3K];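 further: spheroids exposed to agents for seven days before readout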;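 on viability, T/C: 100% = DMSO vehicle control viability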
Details: for pIC50: curve of first compound; for viability, T/C: stronger effect = lower value
Outline: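 Multi-cell spheroids combine tumor cells with HUVEC and human MSCs, treated with targeted agents alone or with inavolisib, alpelisib, duvelisib or copanlisib. Concentrations fall in half-log steps from at or near clinical Cmax, or from 10 microM where Cmax is unknown; viability read-out.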

[1] = second compound 0.00316 µM, first compound 0.0316 µM
[2] = second compound 0.00316 µM, first compound 0.1 µM
[3] = second compound 0.00316 µM, first compound 0.316 µM
[4] = second compound 0.00316 µM, first compound 1 µM
[5] = second compound 0.00316 µM, first compound 3.16 µM
[6] = second compound 0.00316 µM, first compound 10 µM
[7] = second compound 0.01 µM, first compound 0.0316 µM
[8] = second compound 0.01 µM, first compound 0.1 µM
[9] = second compound 0.01 µM, first compound 0.316 µM
[10] = second compound 0.01 µM, first compound 1 µM
[11] = second compound 0.01 µM, first compound 3.16 µM
[12] = second compound 0.01 µM, first compound 10 µM
[13] = second compound 0.0316 µM, first compound 0.0316 µM
[14] = second compound 0.0316 µM, first compound 0.1 µM
[15] = second compound 0.0316 µM, first compound 0.316 µM
[16] = second compound 0.0316 µM, first compound 1 µM
[17] = second compound 0.0316 µM, first compound 3.16 µM
[18] = second compound 0.0316 µM, first compound 10 µM
[19] = second compound 0.1 µM, first compound 0.0316 µM
[20] = second compound 0.1 µM, first compound 0.1 µM
[21] = second compound 0.1 µM, first compound 0.316 µM
[22] = second compound 0.1 µM, first compound 1 µM
[23] = second compound 0.1 µM, first compound 3.16 µM
[24] = second compound 0.1 µM, first compound 10 µM
[25] = second compound 0.316 µM, first compound 0.0316 µM
[26] = second compound 0.316 µM, first compound 0.1 µM
[27] = second compound 0.316 µM, first compound 0.316 µM
[28] = second compound 0.316 µM, first compound 1 µM
[29] = second compound 0.316 µM, first compound 3.16 µM
[30] = second compound 0.316 µM, first compound 10 µM
[31] = second compound 1 µM, first compound 0.0316 µM
[32] = second compound 1 µM, first compound 0.1 µM
[33] = second compound 1 µM, first compound 0.316 µM
[34] = second compound 1 µM, first compound 1 µM
[35] = second compound 1 µM, first compound 3.16 µM
[36] = second compound 1 µM, first compound 10 µM

In the case of `C#Cc1c(F)ccc2cc(O)cc(-c3ncc4c(N5CC6CCC(C5)N6)nc(OCC56CCCN5CC(F)C6)nc4c3F)c12` (stereo unspecified) + CC(Nc1ccc2c(c1)OCCn1cc(N3C(=O)OCC3C(F)F)nc1-2)C(N)=O, the pIC50 (second compound 0.00316 µM) was under 5.00, the pIC50 (second compound 0.01 µM) was under 5.00 and the pIC50 (second compound 0.0316 µM) was 5.05. For the same compound, the pIC50 (second compound 0.1 µM) was 5.10, the pIC50 (second compound 0.316 µM) was 5.28 and the pIC50 (second compound 1 µM) was 5.35. For the same compound, the viability, T/C [1] was 94.9%, the viability, T/C [2] was 91% and the viability, T/C [3] was 86%. It also gave a viability, T/C [4] of 91.5%, a viability, T/C [5] of 88.2% and a viability, T/C [6] of 53.4%. For the same compound, the viability, T/C [7] was 95.7%, the viability, T/C [8] was 103% and the viability, T/C [9] was 83.3%. For the same compound, the viability, T/C [10] was 82%, the viability, T/C [11] was 89.2% and the viability, T/C [12] was 55.1%. The viability, T/C [13] was 91.4%, the viability, T/C [14] was 84.9% and the viability, T/C [15] was 88.3%. It also gave a viability, T/C [16] of 81.2%, a viability, T/C [17] of 81.9% and a viability, T/C [18] of 46.5%. The viability, T/C [19] was 84%, the viability, T/C [20] was 76.7% and the viability, T/C [21] was 72.1%. For the same compound, the viability, T/C [22] was 75.5%, the viability, T/C [23] was 73.9% and the viability, T/C [24] was 44.4%. For the same compound, the viability, T/C [25] was 93.1%, the viability, T/C [26] was 72% and the viability, T/C [27] was 81.1%. It also gave a viability, T/C [28] of 64.5%, a viability, T/C [29] of 65.7% and a viability, T/C [30] of 36.4%. The viability, T/C [31] was 89.1%, the viability, T/C [32] was 75.4% and the viability, T/C [33] was 82.1%. It also gave a viability, T/C [34] of 70.3%, a viability, T/C [35] of 59.2% and a viability, T/C [36] of 31.3%.

Compound `CC(Cn1ccc(-c2ccc(C#N)c(Cl)c2)n1)NC(=O)c1cc(C(C)O)[nH]n1` (stereo unspecified) + CC(Nc1ccc2c(c1)OCCn1cc(N3C(=O)OCC3C(F)F)nc1-2)C(N)=O has a pIC50 (second compound 0.00316 µM) of under 5.00, a pIC50 (second compound 0.01 µM) of under 5.00 and a pIC50 (second compound 0.0316 µM) of under 5.00. For the same compound, the pIC50 (second compound 0.1 µM) was under 5.00, the pIC50 (second compound 0.316 µM) was under 5.00 and the pIC50 (second compound 1 µM) was under 5.00. It also gave a viability, T/C [1] of 104%, a viability, T/C [2] of 84.3% and a viability, T/C [3] of 107%. For the same compound, the viability, T/C [4] was 99.4%, the viability, T/C [5] was 101% and the viability, T/C [6] was 88.6%. The viability, T/C [7] was 102%, the viability, T/C [8] was 93.8% and the viability, T/C [9] was 79.3%. It also gave a viability, T/C [10] of 90%, a viability, T/C [11] of 94.6% and a viability, T/C [12] of 77.8%. It also gave a viability, T/C [13] of 101%, a viability, T/C [14] of 79.7% and a viability, T/C [15] of 92.5%. For the same compound, the viability, T/C [16] was 90%, the viability, T/C [17] was 88.4% and the viability, T/C [18] was 72.1%. The viability, T/C [19] was 114%, the viability, T/C [20] was 82.2% and the viability, T/C [21] was 80.4%. For the same compound, the viability, T/C [22] was 102%, the viability, T/C [23] was 94.8% and the viability, T/C [24] was 65%. It also gave a viability, T/C [25] of 88.5%, a viability, T/C [26] of 77.7% and a viability, T/C [27] of 96.1%. It also gave a viability, T/C [28] of 85.1%, a viability, T/C [29] of 69.9% and a viability, T/C [30] of 64.5%. It also gave a viability, T/C [31] of 93%, a viability, T/C [32] of 72.7% and a viability, T/C [33] of 89%. It also gave a viability, T/C [34] of 78.8%, a viability, T/C [35] of 66.5% and a viability, T/C [36] of 68%.

Work on `CC1(C)CCC(Nc2ncc(C(F)(F)F)c(-c3c[nH]c4c(P(C)(C)=O)c(C#N)ccc34)n2)CN1` (stereo unspecified) + CC(Nc1ccc2c(c1)OCCn1cc(N3C(=O)OCC3C(F)F)nc1-2)C(N)=O yielded a pIC50 (second compound 0.00316 µM) of over 7.50, a pIC50 (second compound 0.01 µM) of over 7.50 and a pIC50 (second compound 0.0316 µM) of over 7.50. For the same compound, the pIC50 (second compound 0.1 µM) was over 7.50, the pIC50 (second compound 0.316 µM) was over 7.50 and the pIC50 (second compound 1 µM) was over 7.50. It also gave a viability, T/C [1] of 9.78%, a viability, T/C [2] of 9.47% and a viability, T/C [3] of 9.65%. For the same compound, the viability, T/C [4] was 8.55%, the viability, T/C [5] was 8.68% and the viability, T/C [6] was 1.56%. It also gave a viability, T/C [7] of 10.6%, a viability, T/C [8] of 11.4% and a viability, T/C [9] of 9.42%. It also gave a viability, T/C [10] of 8.7%, a viability, T/C [11] of 7.16% and a viability, T/C [12] of 2.11%. For the same compound, the viability, T/C [13] was 11.1%, the viability, T/C [14] was 9.59% and the viability, T/C [15] was 7.86%. The viability, T/C [16] was 8.01%, the viability, T/C [17] was 7.19% and the viability, T/C [18] was 1.24%. For the same compound, the viability, T/C [19] was 11.6%, the viability, T/C [20] was 10% and the viability, T/C [21] was 9.28%. It also gave a viability, T/C [22] of 8.9%, a viability, T/C [23] of 7.73% and a viability, T/C [24] of 1.12%. The viability, T/C [25] was 11.5%, the viability, T/C [26] was 9.36% and the viability, T/C [27] was 8.28%. The viability, T/C [28] was 8.77%, the viability, T/C [29] was 6.8% and the viability, T/C [30] was 1.12%. The viability, T/C [31] was 11.7%, the viability, T/C [32] was 9% and the viability, T/C [33] was 8.85%. For the same compound, the viability, T/C [34] was 10.9%, the viability, T/C [35] was 5.99% and the viability, T/C [36] was 1.09%.
